Test [1] has as its target T1, human V1a receptor (Homo sapiens, UniProt P37288).
T1 construct: expressed in transfected cells; host or cells: CHO K1 (ATCC), also stably transfected with a modified aequorin
Nature of the test: Cellular in vitro assay for determining vasopressin receptor activity, V1a receptor cell line (CHO, aequorin luminescence). It counts as cell-based. The conditions noted are these: for IC50: CHO cell line transfected with human V1a receptor, [Arg]-vasopressin at EC50 concentration, read-out: IC50 hV1a; for ratio IC50 hV2/hV1a: selectivity ratio IC50 hV2 / IC50 hV1a. The procedure, abridged:
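Antagonism is measured in stable CHO K1 transfectants coexpressing the Gαq-coupled receptor and a calcium-sensitive aequorin photoprotein. Agonist challenge uses [Arg]-vasopressin at EC50 after a 10-minute compound exposure; IC50 values come from the luminescence signal.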

In test [2] the target is T2, human V2 receptor (Homo sapiens, UniProt P30518).
T2 construct: expressed in transfected cells; host or cells: CHO K1 (ATCC) expressing firefly luciferase under a CRE-responsive promoter
The test is described as follows: Cellular in vitro assay for determining vasopressin receptor activity, V2 receptor cell line (CHO, CRE-luciferase). Type of test: cell-based. The conditions noted are these: CHO cell line transfected with human V2 receptor; [Arg8]-vasopressin at EC50 concentration, 3 hours; read-out: IC50 hV2.

Each structure is given as a SMILES string.

T2 sequence (P30518 whole entry): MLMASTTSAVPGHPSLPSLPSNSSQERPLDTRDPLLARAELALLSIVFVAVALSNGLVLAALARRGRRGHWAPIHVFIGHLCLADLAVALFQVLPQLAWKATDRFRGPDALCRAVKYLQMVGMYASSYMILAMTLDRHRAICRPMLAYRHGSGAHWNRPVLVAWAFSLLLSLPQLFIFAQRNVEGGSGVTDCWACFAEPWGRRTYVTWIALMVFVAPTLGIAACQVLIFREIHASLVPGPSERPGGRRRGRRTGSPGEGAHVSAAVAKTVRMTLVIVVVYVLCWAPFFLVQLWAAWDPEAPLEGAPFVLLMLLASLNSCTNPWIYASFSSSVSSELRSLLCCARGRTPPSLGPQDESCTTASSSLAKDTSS
T1 sequence (P37288 whole entry): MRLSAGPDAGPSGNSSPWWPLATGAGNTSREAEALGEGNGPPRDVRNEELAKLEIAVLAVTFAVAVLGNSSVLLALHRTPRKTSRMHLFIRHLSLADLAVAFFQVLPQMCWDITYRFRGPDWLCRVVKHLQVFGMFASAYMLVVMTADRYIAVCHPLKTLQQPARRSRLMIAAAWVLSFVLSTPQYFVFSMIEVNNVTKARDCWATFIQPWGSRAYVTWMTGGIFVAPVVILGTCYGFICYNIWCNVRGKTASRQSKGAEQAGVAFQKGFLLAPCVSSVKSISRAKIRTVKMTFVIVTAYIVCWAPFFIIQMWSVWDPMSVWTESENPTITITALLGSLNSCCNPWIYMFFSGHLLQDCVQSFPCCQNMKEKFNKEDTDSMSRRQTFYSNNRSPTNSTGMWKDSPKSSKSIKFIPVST

For orientation: IC50 means the concentration at which inhibition is half-maximal. On to `Cc1cccnc1NC(=O)c1ccccc1-n1cnc(Cn2nc(-c3ccc(Cl)cc3)n(C[C@H](O)C(F)(F)F)c2=O)n1` [Example 296, 2-[3-({3-(4-Chlorophenyl)-5-oxo-4-[(2S)-3,3,3-trifluoro-2-hydroxypropyl]-4,5-dihydro-1H-1,2,4-triazol-1-yl}methyl)-1H-1,2,4-triazol-1-yl]-N-(3-methylpyridin-2-yl)benzamide], for which, in test [1], the IC50 is 3.95 nM and the “ratio IC50 hV2/hV1a” value is reported as 126.6. Moreover, the IC50 in test [2] was 500 nM.

In the case of `O=C(NCc1ccccc1)c1ccccc1-n1cnc(Cn2nc(-c3ccc(Cl)cc3)n(C[C@H](O)C(F)(F)F)c2=O)n1` [Example 299, N-Benzyl-2-[3-({3-(4-chlorophenyl)-5-oxo-4-[(2S)-3,3,3-trifluoro-2-hydroxypropyl]-4,5-dihydro-1H-1,2,4-triazol-1-yl}methyl)-1H-1,2,4-triazol-1-yl]benzamide], the IC50 is 4.4 nM in test [1] and 265 nM in test [2]. The “ratio IC50 hV2/hV1a” value in test [1] was determined as 60.2.

For the compound `O=C(Nc1ccncc1)c1ccccc1-n1cnc(Cn2nc(-c3ccc(Cl)cc3)n(C[C@H](O)C(F)(F)F)c2=O)n1` [Example 300, 2-[3-({3-(4-Chlorophenyl)-5-oxo-4-[(2S)-3,3,3-trifluoro-2-hydroxypropyl]-4,5-dihydro-1H-1,2,4-triazol-1-yl}methyl)-1H-1,2,4-triazol-1-yl]-N-(pyridin-4-yl)benzamide], in test [1], the IC50 was 1.02 nM and the “ratio IC50 hV2/hV1a” value was found to be 656.9. For the same compound, in test [2], the IC50 worked out at 670 nM.

In the case of `O=C(NCc1ccccn1)c1ccccc1-n1cnc(Cn2nc(-c3ccc(Cl)cc3)n(C[C@H](O)C(F)(F)F)c2=O)n1` [Example 301, 2-[3-({3-(4-Chlorophenyl)-5-oxo-4-[(2S)-3,3,3-trifluoro-2-hydroxypropyl]-4,5-dihydro-1H-1,2,4-triazol-1-yl}methyl)-1H-1,2,4-triazol-1-yl]-N-(pyridin-2-ylmethyl)benzamide], in test [1], the IC50 worked out at 8.75 nM and the “ratio IC50 hV2/hV1a” value was 69.7. Also, the 50% inhibitory concentration (IC50) in test [2] worked out at 610 nM.

On to `O=C(NCc1ccncc1)c1ccccc1-n1cnc(Cn2nc(-c3ccc(Cl)cc3)n(C[C@H](O)C(F)(F)F)c2=O)n1` [Example 302, 2-[3-({3-(4-Chlorophenyl)-5-oxo-4-[(2S)-3,3,3-trifluoro-2-hydroxypropyl]-4,5-dihydro-1H-1,2,4-triazol-1-yl}methyl)-1H-1,2,4-triazol-1-yl]-N-(pyridin-4-ylmethyl)benzamide], for which the 50% inhibitory concentration (IC50) came out at 3.75 nM in test [1] and 3300 nM in test [2]. Moreover, the “ratio IC50 hV2/hV1a” value in test [1] stood at 880.0.

In the case of `O=C(Nc1ccc(F)cc1F)c1ccccc1-n1cnc(Cn2nc(-c3ccc(Cl)cc3)n(C[C@H](O)C(F)(F)F)c2=O)n1` [Example 303, 2-[3-({3-(4-Chlorophenyl)-5-oxo-4-[(2S)-3,3,3-trifluoro-2-hydroxypropyl]-4,5-dihydro-1H-1,2,4-triazol-1-yl}methyl)-1H-1,2,4-triazol-1-yl]-N-(2,4-difluorophenyl)benzamide], in test [1], the IC50 came out at 2.15 nM and the “ratio IC50 hV2/hV1a” value is given as 234.9. Also, the IC50 in test [2] turned out to be 505 nM.

As to `O=C(Nc1cc(F)ccc1F)c1ccccc1-n1cnc(Cn2nc(-c3ccc(Cl)cc3)n(C[C@H](O)C(F)(F)F)c2=O)n1` [Example 304, 2-[3-({3-(4-Chlorophenyl)-5-oxo-4-[(2S)-3,3,3-trifluoro-2-hydroxypropyl]-4,5-dihydro-1H-1,2,4-triazol-1-yl}methyl)-1H-1,2,4-triazol-1-yl]-N-(2,5-difluorophenyl)benzamide], in test [1], the IC50 is 2.25 nM and the “ratio IC50 hV2/hV1a” value was found to be 29.1. Moreover, the IC50 in test [2] is 65.5 nM.

Turning to `O=C(Nc1ccccc1F)c1ccccc1-n1cnc(Cn2nc(-c3ccc(Cl)cc3)n(C[C@H](O)C(F)(F)F)c2=O)n1` [Example 305, 2-[3-({3-(4-Chlorophenyl)-5-oxo-4-[(2S)-3,3,3-trifluoro-2-hydroxypropyl]-4,5-dihydro-1H-1,2,4-triazol-1-yl}methyl)-1H-1,2,4-triazol-1-yl]-N-(2-fluorophenyl)benzamide], in test [1], the IC50 is 0.97 nM and the “ratio IC50 hV2/hV1a” value was determined as 55.7. Also, in test [2], the half-inhibitory concentration (IC50) was 54 nM.

Consider `Cc1c(F)cccc1NC(=O)c1ccccc1-n1cnc(Cn2nc(-c3ccc(Cl)cc3)n(C[C@H](O)C(F)(F)F)c2=O)n1` [Example 306, 2-[3-({3-(4-Chlorophenyl)-5-oxo-4-[(2S)-3,3,3-trifluoro-2-hydroxypropyl]-4,5-dihydro-1H-1,2,4-triazol-1-yl}methyl)-1H-1,2,4-triazol-1-yl]-N-(3-fluoro-2-methylphenyl)benzamide], for which, in test [1], the IC50 worked out at 1.6 nM and the “ratio IC50 hV2/hV1a” value came to 77.2. For the same compound, the concentration for half-maximal inhibition (IC50) in test [2] amounted to 124 nM.

Regarding `Cc1ccc(F)c(NC(=O)c2ccccc2-n2cnc(Cn3nc(-c4ccc(Cl)cc4)n(C[C@H](O)C(F)(F)F)c3=O)n2)c1` [Example 307, 2-[3-({3-(4-Chlorophenyl)-5-oxo-4-[(2S)-3,3,3-trifluoro-2-hydroxypropyl]-4,5-dihydro-1H-1,2,4-triazol-1-yl}methyl)-1H-1,2,4-triazol-1-yl]-N-(2-fluoro-5-methylphenyl)benzamide], the IC50 is 1.65 nM in test [1] and 175 nM in test [2]. For the same compound, the “ratio IC50 hV2/hV1a” value in test [1] stood at 106.1.

On to `O=C(NN1CCOCC1)c1ccccc1-n1cnc(Cn2nc(-c3ccc(Cl)cc3)n(C[C@H](O)C(F)(F)F)c2=O)n1` [Example 308, 2-[3-({3-(4-Chlorophenyl)-5-oxo-4-[(2S)-3,3,3-trifluoro-2-hydroxypropyl]-4,5-dihydro-1H-1,2,4-triazol-1-yl}methyl)-1H-1,2,4-triazol-1-yl]-N-(morpholin-4-yl)benzamide], for which the IC50 in test [1] turned out to be 17.5 nM; in test [2], 3300 nM. For the same compound, the “ratio IC50 hV2/hV1a” value in test [1] is 188.6.

On to `Cc1ccc(NC(=O)c2ccccc2-n2cnc(Cn3nc(-c4ccc(Cl)cc4)n(C[C@H](O)C(F)(F)F)c3=O)n2)c(F)c1` [Example 309, 2-[3-({3-(4-Chlorophenyl)-5-oxo-4-[(2S)-3,3,3-trifluoro-2-hydroxypropyl]-4,5-dihydro-1H-1,2,4-triazol-1-yl}methyl)-1H-1,2,4-triazol-1-yl]-N-(2-fluoro-4-methylphenyl)benzamide], for which, in test [1], the half-inhibitory concentration (IC50) is 1.9 nM and the “ratio IC50 hV2/hV1a” value came to 61.3. Further, the IC50 in test [2] is 116 nM.

Regarding `O=C(Nc1ccc(F)cc1)c1ccccc1-n1cnc(Cn2nc(-c3ccc(Cl)cc3)n(C[C@H](O)C(F)(F)F)c2=O)n1` [Example 310, 2-[3-({3-(4-Chlorophenyl)-5-oxo-4-[(2S)-3,3,3-trifluoro-2-hydroxypropyl]-4,5-dihydro-1H-1,2,4-triazol-1-yl}methyl)-1H-1,2,4-triazol-1-yl]-N-(4-fluorophenyl)benzamide], in test [1], the IC50 came out at 2.6 nM and the “ratio IC50 hV2/hV1a” value is recorded as 82.7. The IC50 in test [2] worked out at 215 nM.

Take `O=C(c1ccccc1-n1cnc(Cn2nc(-c3ccc(Cl)cc3)n(C[C@H](O)C(F)(F)F)c2=O)n1)N1CCSCC1` [Example 311, 5-(4-Chlorophenyl)-2-({1-[2-(thiomorpholin-4-ylcarbonyl)phenyl]-1H-1,2,4-triazol-3-yl}methyl)-4-[(2S)-3,3,3-trifluoro-2-hydroxypropyl]-2,4-dihydro-3H-1,2,4-triazol-3-one]: in test [1], the IC50 was found to be 1.85 nM and the “ratio IC50 hV2/hV1a” value came to 675.7. Further, the half-maximal inhibitory concentration (IC50) in test [2] came out at 1250 nM.

On to `Nc1cccc(NC(=O)c2ccccc2-n2cnc(Cn3nc(-c4ccc(Cl)cc4)n(C[C@H](O)C(F)(F)F)c3=O)n2)n1` [Example 312, N-(6-Aminopyridin-2-yl)-2-[3-({3-(4-chlorophenyl)-5-oxo-4-[(2S)-3,3,3-trifluoro-2-hydroxypropyl]-4,5-dihydro-1H-1,2,4-triazol-1-yl}methyl)-1H-1,2,4-triazol-1-yl]benzamide], for which, in test [1], the IC50 was determined as 6.85 nM and the “ratio IC50 hV2/hV1a” value came to 19.7. Moreover, the IC50 in test [2] stood at 135 nM.

As to `Cc1ccncc1NC(=O)c1ccccc1-n1cnc(Cn2nc(-c3ccc(Cl)cc3)n(C[C@H](O)C(F)(F)F)c2=O)n1` [Example 313, 2-[3-({3-(4-Chlorophenyl)-5-oxo-4-[(2S)-3,3,3-trifluoro-2-hydroxypropyl]-4,5-dihydro-1H-1,2,4-triazol-1-yl}methyl)-1H-1,2,4-triazol-1-yl]-N-(4-methylpyridin-3-yl)benzamide], in test [1], the IC50 worked out at 4.15 nM and the “ratio IC50 hV2/hV1a” value amounted to 220.5. Further, the half-inhibitory concentration (IC50) in test [2] was 915 nM.

On to `CCN(CC)C(=O)c1ccccc1-n1cnc(Cn2nc(-c3ccc(Cl)cc3)n(C[C@H](O)C(F)(F)F)c2=O)n1` [Example 314, 2-[3-({3-(4-Chlorophenyl)-5-oxo-4-[(2S)-3,3,3-trifluoro-2-hydroxypropyl]-4,5-dihydro-1H-1,2,4-triazol-1-yl}methyl)-1H-1,2,4-triazol-1-yl]-N,N-diethylbenzamide], for which, in test [1], the concentration for half-maximal inhibition (IC50) stood at 2.15 nM and the “ratio IC50 hV2/hV1a” value is 237.2. For the same compound, the IC50 in test [2] was determined as 510 nM.

On to `O=C(NCc1ccco1)c1ccccc1-n1cnc(Cn2nc(-c3ccc(Cl)cc3)n(C[C@H](O)C(F)(F)F)c2=O)n1` [Example 315, 2-[3-({3-(4-Chlorophenyl)-5-oxo-4-[(2S)-3,3,3-trifluoro-2-hydroxypropyl]-4,5-dihydro-1H-1,2,4-triazol-1-yl}methyl)-1H-1,2,4-triazol-1-yl]-N-(furan-2-ylmethyl)benzamide], for which the values for the IC50 in test [1] and in test [2] were 4.15 nM and 155 nM, respectively. Besides, in test [1], the “ratio IC50 hV2/hV1a” value is 37.3.

The values are drawn from patent US11173151B2, “Substituted triazole derivatives and uses thereof” (BAYER AKTIENGESELLSCHAFT, priority 2017, dated 2021).
